The source of these data is US12616753B2, “HSP70 inhibitors and methods of using same” (THE WISTAR INSTITUTE, priority 2020, dated 2026).

Data set [1] has as its system MC38 cells. Kind of data set: Matrigel invasion assay. To be noted: low doses, 24 hours. In kind it is cell-based, mouse. The method, then: (§1) FIG. 24A: MC38 cells were subjected to invasion assays using BioCoat Matrigel transwells in the presence of the indicated concentrations of AP-4-139B. 24 hours later, cells were fixed and stained with Crystal Violet. Shown are representative images taken from 8 random fields of view per well. Scale bar=100 μm. FIG. 24B: Quantification of FIG. 24A *** p<0.001. FIG. 24C: Schematic representation of the metastasis assay. 4×10^5 MC38 cells were injected into the tail vein of 8-10 week old male C57Bl/6 mice. Mice were treated with i.p. injection of 10 mg/kg AP-4-139B every 48 hours. After 3 weeks, the lungs of mice were formalin fixed and H&E stained, and assessed for the presence of metastatic nodules. FIG. 24D: Representative images of lung metastases (black arrows) from C57Bl/6 mice injected with MC38 cells in the tail vein, followed by treatment with vehicle or AP-4-139B. Scale bar=250 μm. FIG. 24E: Quantification of FIG. 24D. n=5 mice per group. * p<0.05.
Matrigel invasion assays were carried out using 24-well Corning® BioCoat™ Matrigel Invasion Chambers with an 8.0 μm PET membrane (#354480). Transwells were first rehydrated with serum free DMEM for 2 hours at 37° C. […] Number of invaded cells per field (n=8 random fields of view per transwell) were quantified with ImageJSoftware (NIH), normalized to live cells, and expressed as mean±SEM.

The test system of data set [2] is MC38 cells. As to the kind of experiment: In vivo metastasis assay (tail vein injection, C57Bl/6 mice). More on the design: species or system mouse. To be noted: 10 mg/kg every 48 hours, 3 weeks. The method, then:
as §1, with “FIG. 24D: Representative images of lung metastases (black arrows) from C57Bl/6 mice injected with MC38 cells in the tail vein, followed by treatment with vehicle or AP-4-139B. Scale bar=250 μm.” left out
For in vivo metastasis assays, 8-10 week old male C57Bl/6 mice were injected with 4×10^5 MC38 cells. […] At the end of the study, mice were euthanized, lungs were harvested and fixed in formalin for analysis of lung tumor nodules by H&E. For anti-tumor vaccination studies, MC38 cells were treated with 10 μM AP-4-139B for 48 h, resulting in approximately 20% cell death (as assessed by Trypan Blue staining). […] Ten days later, mice were challenged on the right flank with 5×10^5 live MC38 cells, and tumor growth and incidence were monitored 3 times per week. […]

Another data set relates to MC38 and CT26. As to the kind of experiment: Alamar Blue cell viability assay, mouse CRC cell lines. The class given is cell-based. To be noted: 72 hours. The method, then:
FIGS. 5A-5F show AP-4-139B is efficacious against CRC in an immunocompetent model, and causes immune cell recruitment. FIGS. 5A-5B: Mouse CRC cell lines, MC38 (FIG. 5A) and CT26 (FIG. 5B), were plated at a density of 1,000 cells per well in 96-well plates. The next day, cells were treated with the indicated inhibitors for 72 hours. Cells were then subjected to the Alamar Blue cell viability assays. Shown are representative IC50 values of an average of six technical replicates and two biological replicates. FIG. 5C: Mouse CRC cell lines MC38 and CT26 were treated with 10 μM AP-4-139B for 24 or 48 hours and immunoblotted for HSP70, p53, AKT, Cleaved Lamin A (CLA), Cleaved Caspase 3, MRPS14, and GAPDH (loading control). The doublet detected for HSP70 is seen in other murine cell lines, and may represent a degradation product or post-translational modification. FIG. 5D: 1×10^6 MC38 cells were injected subcutaneously into the right flank of 6-8 week old male C57Bl/6 mice. Once tumors reached an approximate volume of 50 mm^3, mice were separated randomly into two groups: vehicle vs. AP-4-139B. Mice were treated with 10 mg/kg AP-4-139B every 48 hours. All mice were euthanized 20 days after the start of treatment. Tumor volumes were recorded using digital calipers and using the formula v=length×width^2×0.52. *** p<0.001. n=15 mice per group.

A short description of another data set: Pharmacokinetics in mice. In kind it is in vivo. Conditions: 10 mg/kg. From the text:
FIGS. 8A-8E show HSP70 inhibition is effective on mouse CRC cell lines. FIG. 8A: Association of HSPA1A gene expression and survival rate of patients with colorectal adenocarcinoma (COAD). Patient data was gathered from USCS Xena platform (GDC-TCGA COAD; n=435). Log-rank test was used to determine significance. p=0.0004. FIG. 8B: Association of HSPA1A gene expression and stage of COAD (n=440). Wilcoxon rank sum test was used to determine significance. * p<0.05, *** p<0.001. FIG. 8C: Body weights of mice injected with HT-29 tumor xenografts. Weights were measured at the start of the treatment to determine mouse toxicity. n.s. not significant, n=10 mice per group. FIG. 8D: H&E staining of livers and colons of mice injected with HT-29 tumor xenografts. Tissues were collected at the end of the study. FIG. 8E. Pharmacokinetic values of AP-4-139B in the liver, plasma, and brain from three CDI mice treated with 10 mg/kg of compound.

Regarding `c1ccc(-c2cn3nc(CCCCCC[P+](c4ccccc4)(c4ccccc4)c4ccccc4)sc3n2)cc1` [AP-4-139B, Triphenyl(6-(6-phenylimidazo[2,1-b][1,3,4]thiadiazol-2-yl)hexyl)phosphonium bromide], the “tumor cell migration and invasion” value in the data set with MC38 cells [1] was “sufficient to inhibit tumor cell migration and invasion”. Moreover, the “number of tumor nodules in the lung” value with MC38 cells [2] is listed as “markedly decreased number of tumor nodules in the lung”. Moreover, the “IC50s in murine CRC lines (in words)” value in the data set on MC38 and CT26 was “comparable to that of oxaliplatin”. Besides, in “Pharmacokinetics in mice”, the brain penetrance entry is given as “modest brain penetrance” and the half-life in plasma entry is given as “> five”. In the data set “Pharmacokinetics in mice” (CDI, mouse, plasma), this compound gave a half-life above 5 h.

What is called half-life is the time needed for the level to fall by half in the phase considered.
